The values that follow come from US10456441B2, “Augmenting the immune response by promoting cell death of immune cells” (The University of Vermont and State Agricultural College, priority 2014, dated 2019).

Where a SMILES comes first, the peptide text is derived from it. The star is where a group is joined. Cbz = O=C(OCc1ccccc1)*; CH2F = FC*

One test relates to RIPK1. In words: RIPK1 cleavage in BMDC by immunoblot. The class given is cell-based, mice. The protocol: Day 7 BMDC were lysed in Tris-buffer containing Complete Protease Inhibitor (Roche), 0.2% NP-40 (Roche), and biotin-VAD-fmk (10 μM, MP Biomedicals, Santa Ana, Calif.). Insoluble cell fragments were removed by centrifugation, and the protein concentration of the resulting whole cell lysates was determined by Bradford assay (BioRad, Hercules, Calif.). Whole cell lysates (30 μg per lane) were separated by SDS-PAGE. Precipitation of active caspases was performed by rocking 600 μg of whole cell lysates initially with sepharose 4B beads (Sigma) at 4° C. for 2 hours to remove nonspecific binding of proteins to the beads, followed by overnight rocking incubation with streptavidin-conjugated sepharose beads (Invitrogen) at 4° C. Release of biotin-VAD-fmk-labeled caspases from the streptavidin beads was achieved by heating to 95° C. for 10 min in Laemmli buffer. After gel electrophoresis, proteins were transferred to PVDF membranes (0.2 μm pore size, Bio-Rad), and immunoblots were performed using antibodies (1 μg/ml) against caspase-3, caspase-8 (both Cell Signaling, Danvers, Mass.), caspase-9 (Stressgen, Farmingdale, N.Y.), and RIPK1 (BD Biosciences).
Background: A western blot detects proteins with antibodies after separation by electrophoresis.

The test system of another test is γδ T cells. In words: Cell death of γδ T cells by TUNEL assay. The test is classed as cell-based, mice. The settings on record: 50 μM zVAD. On the procedure:
Spleens were isolated and disrupted through nylon mesh in RPMI 1640 with 25 mm Hepes (MediaTech, Herndon, Va.) containing 5% (v/v) bovine calf serum (HyClone, Logan, Utah). Erythrocyte lysis of splenocytes was performed using Geys solution. γδ T lymphocytes were enriched by negative selection using a magnetic bead system (Qiagen, Valencia, Calif.) in which splenocytes were incubated with a cocktail of rat monoclonal antibodies to mouse CD4 (clone GK 1.5), CD8 (clone Tib105), class II (clone M5/114/15/2), CD11b (clone M1/70), and B220 (CD45R) (clone RA3-6B2). Cells were washed three times and then rocked with goat anti-rat conjugated magnetic beads at a 10:1 ratio of beads to cell at 4° C. for 45 min. Magnetic depletion was used to remove bead-bound cells. Finally, enriched γδ T cells were resuspended in complete medium (RPMI 1640 (Mediatech, Inc., Herndon, Va., USA), 2.5 mg/ml glucose (Sigma, St. Louis, Mo.), […] folate (Invitrogen, Carlsbad, Calif.), 110 μg/ml pyruvate (Invitrogen), 5×10^−5 M 2-mercaptoethanol (Sigma), 292.3 μg/ml glutamine (Invitrogen), 100 units/ml penicillin-streptomycin (Invitrogen), and 5% bovine calf serum). […] Cells were counted daily and supplied with fresh media containing 50 units/ml IL-2. […]

Another test has as its system CD4 OT-II T cells. In words: OT-II αβ T cell cultures with DC and OVAp. The test is classed as cell-based, mice. Conditions: OVAp + DC treated with zVAD (50 μM). On the procedure:
C57BL/6 OT-II mice contain CD4^+ T cells that respond to ovalbumin peptide (OVAp) 323-339 in the context of I-A^b (27). OT-II T cells were cultured with C57BL/6 DC at a 1:1 ratio in the presence of OVAp (10 μg/ml) with or without zVAD (50 μM). Supernatants were collected after 20 h and analyzed for production of IFN-γ and IL-17 by Bio-Plex.

Another test relates to human DC. In words: Cell death of human DC from peripheral blood monocytes. The class given is cell-based. The settings on record: human DC cultured with GM-CSF, zVAD at doses very similar to murine DC, 20 h. The protocol: Human monocytes were obtained as […] cells by magnetic bead purification (Miltenyi Biotech, Auburn, Calif.) from peripheral blood of healthy volunteers. Myeloid DC were prepared by culture of monocytes in AIM V media plus 10% fetal calf serum (HyClone) with 800 U/ml of granulocyte-macrophage colony-stimulating factor (GM-CSF), (BioLegend, San Diego, Calif.) without or with 500 U/ml IL-4 (BioLegend). Cell death was examined by terminal deoxynucleotidyl transferase dUTP nick end labeling (TUNEL). Briefly, cells were stained for expression of cell surface molecules, and then fixed with 1% methanol-free formaldehyde followed by 70% ethanol. After washing, the TUNEL reaction was performed by incubating cells in 50 μl of reaction mix containing 10 units of terminal deoxribosyl transferase (TdT), 2.5 mM cobalt chloride in 1× TdT buffer, and 0.2 pmol/μl of FITC-dUTP (Roche, Indianapolis, Ind.) at 37° C. for 1 hour. The cells were washed twice and fixed in 1% methanol-free formaldehyde. Murine thymocytes were included as a positive control for apoptotic cells. Flow cytometry was performed on an LSRII (BD Biosciences, San Jose, Calif.) calibrated with compensation beads (BD Biosciences). Analysis was performed using FlowJo software (Tree Star, Inc., Ashland, Oreg.).

Turning to `CC(C)[C@H](NC(=O)OCc1ccccc1)C(=O)N[C@@H](C)C(=O)N[C@@H](CC(=O)O)C(=O)CF` [zVAD, N-benzyloxycarbonyl-Val-Ala-Asp-fluoromethyl ketone] (Cbz-Val-Ala-Asp-CH2F), in the test on RIPK1 (BMDC cultured with GM-CSF only, zVAD), the “cleavage of RIPK1” value is on record as “completely inhibited cleavage”. In addition, the “cleavage of RIPK1” value in the test on RIPK1 (BMDC cultured with GM-CSF+IL-4, zVAD) is listed as “only partially inhibited”. In addition, the “cell death of γδ T cells” value with γδ T cells is listed as “no increase in cell death”. In the test with CD4 OT-II T cells, the “production of IFN-γ by OT-II T cells” value was “considerably augmented” and the “production of IL-17 by OT-II T cells” value is given as “considerably augmented”. Besides, the “death of human DC” value in the test on human DC is listed as “highly susceptible to death”.
